Test results taken from patent US11319318B2, “Pyridinones and isoquinolinones as inhibitors of the bromodomain BRD9” (Boehringer Ingelheim International GmbH, priority 2015, dated 2022).

target: T1, bromodomain of BRD9 (GST fusion) / acetylated histone H4 peptide (BET Bromodomain Ligand) (Homo sapiens, UniProt Q9H8M2); assay: BRD9-H4 Tetraacetylated Peptide Inhibition AlphaScreen; assay type: binding
T1 construct: A GST fusion protein of the bromodomain of BRD9; purchased BPS Biosciences #32519
T1 sequence (Q9H8M2 136-240 limits assumed): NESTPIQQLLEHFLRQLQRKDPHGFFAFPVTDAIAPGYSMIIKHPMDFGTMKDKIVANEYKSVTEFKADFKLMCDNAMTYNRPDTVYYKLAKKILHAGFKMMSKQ
Description: BRD9-H4 Tetraacetylated Peptide Inhibition AlphaScreen
This assay is used to identify compounds which inhibit the interaction of the bromodomain of BRD9 with a tetra-acetylated peptide based on the sequence of histone H4 (termed the “BET Bromodomain ligand” as purchased from BPS Biosciences).
A GST fusion protein of the bromodomain of BRD9 and an acetylated histone H4 peptide (the “BET Bromodomain Ligand” are purchased as part of the BRD9 Inhibitor Screening Assay Kit at BPS Biosciences (Cat. Number: #32519)
AlphaScreen Beads (Perkin Elmer):
AlphaLISA Glutathione Acceptor Beads
AlphaScreen Streptavidin Donor Beads
Assay plates: Proxiplate-384 PLUS, white (PerkinElmer)
The assay is done in a darkened room below 100 Lux.
Compounds are dispensed onto assay plates using an Access Labcyte Workstation with the Labcyte Echo 550 from a DMSO solution. For the chosen highest concentration of 100 μM, 150 nl of compound solution are transferred from a 10 mM DMSO solution. A series of 11 concentrations is transferred for each compound at which each concentration is five-fold lower than the previous one (i.e. 100 μM, 20 μM, 4 μM, 0.8 μM, etc). DMSO is added such that every well has a total of 150 nl of DMSO.
15 μl of the resulting mix are added to the assay plates that contain 150 nl of the compounds. After 60 min at room temperature the signal is measured in a PerkinElmer Envision HTS Multilabel Reader using the AlphaScreen specifications from PerkinElmer.
Each plate contains negative controls where biotinylated BET Bromodomain Ligand and GST-BRD9 are left out and replaced by assay buffer. Negative control values are entered as low basis value when using the software GraphPad Prism for calculations.

Compound	IC50 [µM]
Cc1cc(-c2ccc(CN3CCN(C)CC3)cc2)cn(C)c1=O [Compound I-88]	0.078
Cc1cc(-c2ccc(CN)cc2)cn(C)c1=O [Compound I-78]	0.13
COc1cc(-c2cc(C)c(=O)n(C)c2)ccc1C(=O)N1CCN(C)CC1 [Compound I-89, 5-[3-methoxy-4-(4-methyl-piperazine-1-carbonyl)-phenyl]-1,3-dimethyl-1H-pyridin-2-one]	0.07
Cc1cc(-c2cccc(OC(F)(F)F)c2)cn(C)c1=O [Compound I-16]	0.568
Cc1ccc(-c2cn(C)c(=O)c(C)n2)cc1NS(C)(=O)=O [Compound I-25]	6.58
Cc1cc(-c2ccc([C@H](C)N)cc2)cn(C)c1=O [Compound I-93]	0.112
CNCc1ccc(-c2cc(C)c(=O)n(C)c2)cc1C [Compound I-36]	0.042
Cc1cc(-c2ccc(C(=O)N3CC(O)C3)cc2)cn(C)c1=O [Compound I-39]	0.294
Cc1cc(-c2ccc(C(=O)N3CCNCC3)c(CS(C)(=O)=O)c2)cn(C)c1=O [Compound I-170]	0.029
Cc1ccc(-c2cc(C)c(=O)n(C)c2)cc1NS(C)(=O)=O [Compound I-23, N-[5-(1,5-Dimethyl-6-oxo-1,6-dihydro-pyridin-3-yl)-2-methyl-phenyl]-methanesulfonamide]	0.609
Cc1cc(-c2ccc(C(=O)c3c(Cl)ncnc3Cl)cc2)cn(C)c1=O [Compound I-100]	0.05
COc1cc(-c2cc(C)c(=O)n(C)c2)ccc1C(=O)N1CCNCC1 [Compound I-158]	0.019
Cc1ccc(-c2cc(C)c(=O)n(C)n2)cc1NS(C)(=O)=O [Compound I-26]	2.56
Cc1cc(-c2ccc(CN3CCNCC3)cc2)cn(C)c1=O [Compound I-79]	0.06
Cc1cc(-c2ccc(C(=O)N3CCN(C)CC3)cc2)cn(C)c1=O [Compound I-9]	0.172
Cc1cc(-c2ccc(C3(N)CC3)cc2)cn(C)c1=O [Compound I-69]	0.015
Cc1cc(-c2cc(C)c(=O)n(C)c2)ccc1CN1CCN(C)CC1 [Compound I-34]	0.017
Cc1cc(-c2ccc(C(=O)N3CC4CCC3C4)cc2)cn(C)c1=O (centres unmarked) [Compound I-38]	0.256
Cc1cc(-c2cccc(OC(F)F)c2)cn(C)c1=O [Compound I-101]	0.503
Cc1cc(-c2ccc([C@@H](C)N)cc2)cn(C)c1=O [Compound I-94]	0.334

Compound	IC50 [µM]
Cc1cc(-c2ccc(C(=O)N3CCCC3)cc2)cn(C)c1=O [Compound I-40]	0.496
CN1CCN(C(=O)c2ccc(-c3cc(O)c(=O)n(C)c3)cc2)CC1 [Compound I-45, 3-Hydroxy-1-methyl-5-[4-(4-methyl-piperazine-1-carbonyl)-phenyl]-1H-pyridin-2-one]	2.09
Cc1cc(-c2ccc(C(=O)N3CCN(C)CC3)c(F)c2)cn(C)c1=O [Compound I-15]	0.279
Cc1cc(-c2ccc(N)cc2)cn(C)c1=O [Compound I-91]	0.128
Cc1cc(-c2ccc(CN3CCOCC3)cc2)cn(C)c1=O [Compound I-14]	0.109
CCn1cc(-c2ccc(C)c(NS(C)(=O)=O)c2)cc(C)c1=O [Compound I-24]	3.31
COc1cc(C(=O)N2CCNCC2)ccc1-c1cc(C)c(=O)n(C)c1 [Compound I-161]	0.032
Cc1cc(-c2cc(C)c(=O)n(C)c2)ccc1CN1CCNCC1 [Compound I-33, 1,3-Dimethyl-5-(3-methyl-4-piperazin-1-ylmethyl-phenyl)-1H-pyridin-2-one]	0.022
Cc1ccc(-c2cn(C)c(=O)c(C)c2C)cc1N [Compound I-19]	0.333
Cc1cc(-c2ccc(C(=O)c3cncnc3)cc2)cn(C)c1=O [Compound I-97]	0.267
Cc1cc(-c2ccc(C(=O)NC3CCN(C)CC3)cc2)cn(C)c1=O [Compound I-30, 4-(1,5-Dimethyl-6-oxo-1,6-dihydro-pyridin-3-yl)-N-(1-methyl-piperidin-4-yl)-benzamide]	0.444
CN1CCN(C(=O)c2ccc(-c3cc(I)c(=O)n(C)c3)cc2)CC1 [Compound I-43, 3-Iodo-1-methyl-5-[4-(4-methyl-piperazine-1-carbonyl)-phenyl]-1H-pyridin-2-one]	0.065
Cc1ccc(-c2cc(C)c(=O)n(C)c2)cc1NCc1cccnc1 [Compound I-42, 1,3-Dimethyl-5-{4-methyl-3-[(pyridin-3-ylmethyl)-amino]-phenyl}-1H-pyridin-2-one]	0.47
CN1CCN(C(=O)c2ccc(-c3cc(C(F)F)c(=O)n(C)c3)cc2)CC1 [Compound I-27]	0.705
CCS(=O)(=O)Cc1cc(-c2cc(C)c(=O)n(C)c2)ccc1C(=O)N1CCNCC1 [Compound I-169, 5-[3-Ethanesulfonylmethyl-4-(piperazine-1-carbonyl)-phenyl]-1,3-dimethyl-1H-pyridin-2-one]	0.029
Cc1c(-c2ccc(C(=O)N3CCN(C)CC3)cc2)cn(C)c(=O)c1C [Compound I-18]	0.113
CN1CCN(C(=O)c2ccc(-c3cc(Br)c(=O)n(C)c3)cc2)CC1 [Compound I-44]	0.508
Cc1ccc(-c2cc(C)c(=O)n(C3CC3)c2)cc1NS(C)(=O)=O [Compound I-28]	5.12
CNc1cc(-c2ccc(C)c(NS(C)(=O)=O)c2)cn(C)c1=O [Compound I-32, N-[2-Methyl-5-(1-methyl-5-methylamino-6-oxo-1,6-dihydro-pyridin-3-yl)-phenyl]-methanesulfonamide]	2.03
Cc1ccc(-c2cc(N)c(=O)n(C)c2)cc1NS(C)(=O)=O [Compound I-29]	4.22

More lines, now with the values ahead:

IC50 [µM]	Compound
5.25	Cc1ccc(-c2cn(C)c(=O)c3cccc(O)c23)cc1NS(C)(=O)=O [II-36, N-[5-(5-Hydroxy-2-methyl-1-oxo-1,2-dihydro-isoquinolin-4-yl)-2-methyl-phenyl]-methanesulfonamide]
0.103	Cc1cc(-c2ccc(C(=O)N3CCN(C)CC3)c(CS(C)(=O)=O)c2)cn(C)c1=O [Compound I-171]
0.923	Cc1ccc(-c2cn(C)c(=O)c3cccc(C)c23)cc1NS(C)(=O)=O [II-28, N-[5-(2,5-Dimethyl-1-oxo-1,2-dihydro-isoquinolin-4-yl)-2-methyl-phenyl]-methanesulfonamide]
0.984	CN1CCN(C(=O)c2ccc(-c3cn(C4CC4)c(=O)c4ccccc34)cc2)CC1 [II-18]
0.204	Cc1cc(-c2ccc(C(=O)N3CCN(C)CC3)c(Cl)c2)cn(C)c1=O [Compound I-176]
0.239	Cc1ccc(-c2cn(C)c(=O)c3ccccc23)cc1NS(C)(=O)=O [II-29]
0.293	CCS(=O)(=O)Nc1cc(-c2cn(C)c(=O)c3ccccc23)ccc1C [II-35, Ethanesulfonic acid [2-methyl-5-(2-methyl-1-oxo-1,2-dihydro-isoquinolin-4-yl)-phenyl]-amide]
0.086	CN1CCN(C(=O)c2ccc(-c3cn(C)c(=O)c4ccccc34)cc2)CC1 [II-4]
0.27	Cc1cc(-c2ccc(C(=O)N3CCN(C)CC3)c(O)c2)cn(C)c1=O [Compound I-188, 5-[3-Hydroxy-4-(4-methyl-piperazine-1-carbonyl)-phenyl]-1,3-dimethyl-1H-pyridin-2-one]
0.151	COc1cc(C(=O)N2CCN(C)CC2)ccc1-c1cc(C)c(=O)n(C)c1 [Compound I-173, 5-[2-Methoxy-4-(4-methyl-piperazine-1-carbonyl)-phenyl]-1,3-dimethyl-1H-pyridin-2-one]
0.983	CCn1cc(-c2ccc(C(=O)N(C)C)cc2)c2ccccc2c1=O [II-16]
0.033	CNCc1ccc(-c2cc(C)c(=O)n(C)c2)cc1OC [Compound I-192]
0.398	CCn1cc(-c2ccc(C(=O)N3CCN(C)CC3)cc2)c2ccccc2c1=O [II-15]
0.294	CCS(=O)(=O)Cc1cc(-c2cc(C)c(=O)n(C)c2)ccc1C(=O)N(C)C [Compound I-172]
2.69	Cc1ccc(-c2cn(C)c(=O)c3cc(N)ccc23)cc1NS(C)(=O)=O [II-37, N-[5-(7-Amino-2-methyl-1-oxo-1,2-dihydro-isoquinolin-4-yl)-2-methyl-phenyl]-methanesulfonamide]
0.135	Cc1cc(-c2ccc(C(=O)N3CCN(C)CC3)c3ccccc23)cn(C)c1=O [Compound I-175]
0.003	COc1cc(-c2cc(C)c(=O)n(C)c2)ccc1CN1CCN(C)CC1 [Compound I-191, 5-[3-methoxy-4-(4-methyl-piperazin-1-ylmethyl)-phenyl]-1,3-dimethyl-1H-pyridin-2-one]
8.42	Cc1ccc(-c2cn(C)c(=O)c3cccc(N)c23)cc1NS(C)(=O)=O [II-38, N-[5-(5-amino-2-methyl-1-oxo-1,2-dihydro-isoquinolin-4-yl)-2-methyl-phenyl]-methanesulfonamide]
0.106	Cc1cc(-c2cc(C)c(=O)n(C)c2)ccc1C(=O)N1CCN(C)CC1 [Compound I-174]
